Assays:
GT1a-H77 replicon = assay: Stable replicon assay, comparison to daclatasvir, GT1a-H77; format: cell-based; conditions: Hepatitis C virus; Replicon GT1a-H77, NS5A genotype 1a
Experimental: Stable HCV replicon cell lines were grown in complete media (Dulbecco's modified Eagle medium [DMEM], 2 mM L-glutamine, 0.1 mM essential amino acids, 1 mM sodium pyruvate, 10% fetal bovine serum) with the addition 500 μg/ml […] (G418). Huh7-lunet cells were maintained in the same medium without the addition of G418. Cells were routinely passaged at a dilution of 1:5 two times per week. For stable replicon assays (GT1a-H77, GT1b-Con1, GT2a-JFH, GT2a-J6, GT2a-2b-MD2b, GT2a-2b-J8, GT2a-3a-S52, GT3a-552, GT4a-ED43, GT2a-5a-SA13, GT2a-6a-EUKH2, GT2a-6a-HK6a, and GT2a-7a-QC69), an 8-point 3-fold or half-log dilution series of compound was transferred into three replica 96-well plates containing 1×10^4 cells per well in phenol red-free complete media without G418. For the transient replication assay, Huh7-lunet cells in ice-cold phosphate buffered saline (PBS) were electroporated (Bio-Rad Gene pulser: 950 uF, 270V) with 10 μg purified in vitro transcribed HCV replicon RNA, followed by resuspension in phenol red-free complete media without G418 and plating (1×10^4 cells in 200 μL media/well) into three replica 96-well plates prior to compound addition (1 μl compound per well). For stable and transient replicon assays, luciferase activity of compound-treated cells was measured relative to DMSO-treated cells after 72 h incubation using RENILLA-GLO™ Luciferase Assay (Promega). […]

GT2a-5a-SA13 replicon = assay: Stable replicon assay, comparison to daclatasvir, GT2a-5a-SA13; format: cell-based; conditions: Hepatitis C virus
From the text: The plasmid pSG-hRlucNeo-JFH1 was generated from pSG-Neo-JFH1 (Kato et al. 2003, Gastroentrology 125:1808-1817). A fragment containing the JFH-1 5′ NTR-hRluc-Neo gene and two unique restriction sites (AgeI and PmeI) was synthesized (Integrated DNA Technologies, Coralville, Iowa). The resulting plasmid was digested with AgeI and PmeI and the excised fragment (5′NTR-hRluc-Neo) was ligated into pSG-Neo-JFH1 digested with the same enzymes to generate pSG-hRlucNeo-JFH1. To allow expression of heterologous NS5A sequences, an NS5A shuttle vector was generated from pSG-Neo-JFH1, in which the entire coding sequence of NS5A plus the first eight codons of NS5B were replaced with an AfeI restriction site. This was done by Infusion cloning (Clontech, Mountain View, Calif.) from two PCR products that were generated using pSG-Neo-JFH1 as a template and the following primer pairs: […]
Stable HCV replicon cell lines were grown in complete media (Dulbecco's modified Eagle medium [DMEM], 2 mM L-glutamine, 0.1 mM essential amino acids, 1 mM sodium pyruvate, 10% fetal bovine serum) with the addition 500 μg/ml […] (G418). […] For stable and transient replicon assays, luciferase activity of compound-treated cells was measured relative to DMSO-treated cells after 72 h incubation using RENILLA-GLO™ Luciferase Assay (Promega). […]

SMILES | EC50 (GT1a-H77 replicon) [pM] | EC50 (GT2a-5a-SA13 replicon) [pM]
COC(=O)N[C@H](C(=O)N1CCC[C@H]1c1nc(-c2ccc(-c3ccc(-c4c[nH]c([C@@H]5CCCN5C(=O)[C@@H](NC(=O)OC)C(C)C)n4)cc3)cc2)c[nH]1)C(C)C [Daclatasvir, reference compound] | 60 | 9
COC(=O)N[C@H](C(=O)N1C[C@]2(CCCOC2)C[C@H]1c1ncc(-c2ccc(-c3ccc4c(ccc5nc([C@@H]6C[C@@H]7CCC[C@@H]7N6C(=O)[C@@H](NC(=O)OC)C(C)C)[nH]c54)c3)cc2)[nH]1)C(C)C [Compound 16] | 7 | 5
